Where a name gives a salt, the structure may show the parent alone.
How the values were obtained:
[1] = tested on: ENR+CD organoids (ISC to Paneth cell differentiation); experiment: Primary screen: basal (non-stimulated) lysozyme secretion LYZ.NS, 2.5-D 384-well ENR+CD organoid differentiation; type: cell-based, mouse; conditions: primary screen; for Z.LYZ.NS: standard z score
Excerpt: (§1) High-throughput screening.

[2] = tested on: ENR+CD organoids (ISC to Paneth cell differentiation); experiment: Primary screen: CCh-stimulated lysozyme secretion LYZ.S, 2.5-D 384-well ENR+CD organoid differentiation; type: cell-based, mouse; conditions: primary screen
Excerpt: as §1

ENR+CD organoids = experiment: Primary screen: ATP (CellTiter-Glo 3D, CTG) cell number/viability, 2.5-D 384-well ENR+CD organoids; conditions: for Dose.FC.CTG (log2 fold change) / Z.CTG (standard z score) / Dose.FC.CTG / Z.CTG: primary screen; for Z.CTG: standard z score;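 on all read-outs here: compounds given at plating and again on day 3 over a 6-day differentiation from ENR+CV stem-cell-enriched precursors, ATP measured on day 6, plate median as control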

Compound | Z.LYZ.NS (standard z score) ([1]; dose 0.08 uM) | Z.LYZ.NS (standard z score) ([1]; dose 0.40 uM) | Z.LYZ.NS (standard z score) ([1]; dose 2.00 uM) | Z.LYZ.NS (standard z score) ([1]; dose 10.00 uM) | Z.CTG (standard z score) (ENR+CD organoids; dose 0.08 uM) | Z.CTG (standard z score) (ENR+CD organoids; dose 0.40 uM) | Z.CTG (standard z score) (ENR+CD organoids; dose 2.00 uM) | Z.CTG (standard z score) (ENR+CD organoids; dose 10.00 uM) | Dose.FC.LYZ.NS ([1]; dose 0.08 uM) [log2 fold change] | Dose.FC.LYZ.NS ([1]; dose 0.40 uM) [log2 fold change] | Dose.FC.LYZ.NS ([1]; dose 2.00 uM) [log2 fold change] | Dose.FC.LYZ.NS ([1]; dose 10.00 uM) [log2 fold change] | Dose.FC.LYZ.S ([2]; dose 0.08 uM) [log2 fold change] | Dose.FC.LYZ.S ([2]; dose 0.40 uM) [log2 fold change] | Dose.FC.LYZ.S ([2]; dose 2.00 uM) [log2 fold change] | Dose.FC.LYZ.S ([2]; dose 10.00 uM) [log2 fold change] | Dose.FC.CTG (ENR+CD organoids; dose 0.08 uM) [log2 fold change] | Dose.FC.CTG (ENR+CD organoids; dose 0.40 uM) [log2 fold change] | Dose.FC.CTG (ENR+CD organoids; dose 2.00 uM) [log2 fold change] | Dose.FC.CTG (ENR+CD organoids; dose 10.00 uM) [log2 fold change] | other results
Nc1cccc2c1CN(C1CCC(=O)NC1=O)C2=O (centres unmarked) [Lenalidomide (CC-5013)] | 1.283 | 0.863 | 0.615 | −0.360 | 0.110 | −0.037 | −0.596 | −0.754 | – | – | – | – | – | – | – | – | – | – | – | – | Dose.FC.LYZ.NS (log2 fold change) ([1]; dose 0.08 uM): 0.147; Dose.FC.LYZ.NS (log2 fold change) ([1]; dose 0.40 uM): 0.099; Dose.FC.LYZ.NS (log2 fold change) ([1]; dose 2.00 uM): 0.071; Dose.FC.LYZ.NS (log2 fold change) ([1]; dose 10.00 uM): −0.041; Dose.FC.LYZ.S (log2 fold change) ([2]; dose 0.08 uM): 0.099; Dose.FC.LYZ.S (log2 fold change) ([2]; dose 0.40 uM): 0.176; Dose.FC.LYZ.S (log2 fold change) ([2]; dose 2.00 uM): 0.025; Dose.FC.LYZ.S (log2 fold change) ([2]; dose 10.00 uM): −0.045; Dose.FC.CTG (log2 fold change) (ENR+CD organoids; dose 0.08 uM): 0.046; Dose.FC.CTG (log2 fold change) (ENR+CD organoids; dose 0.40 uM): −0.016; Dose.FC.CTG (log2 fold change) (ENR+CD organoids; dose 2.00 uM): −0.250; Dose.FC.CTG (log2 fold change) (ENR+CD organoids; dose 10.00 uM): −0.316
Cn1cc(/C=C2\C(=O)Nc3cccnc32)c2ccccc21 [GW441756] | 0.399 | 0.529 | 1.023 | 0.763 | 0.114 | −0.252 | 0.364 | −0.270 | – | – | – | – | – | – | – | – | – | – | – | – | Dose.FC.LYZ.NS (log2 fold change) ([1]; dose 0.08 uM): 0.046; Dose.FC.LYZ.NS (log2 fold change) ([1]; dose 0.40 uM): 0.061; Dose.FC.LYZ.NS (log2 fold change) ([1]; dose 2.00 uM): 0.117; Dose.FC.LYZ.NS (log2 fold change) ([1]; dose 10.00 uM): 0.088; Dose.FC.LYZ.S (log2 fold change) ([2]; dose 0.08 uM): 0.075; Dose.FC.LYZ.S (log2 fold change) ([2]; dose 0.40 uM): 0.196; Dose.FC.LYZ.S (log2 fold change) ([2]; dose 2.00 uM): 0.125; Dose.FC.LYZ.S (log2 fold change) ([2]; dose 10.00 uM): 0.071; Dose.FC.CTG (log2 fold change) (ENR+CD organoids; dose 0.08 uM): 0.048; Dose.FC.CTG (log2 fold change) (ENR+CD organoids; dose 0.40 uM): −0.105; Dose.FC.CTG (log2 fold change) (ENR+CD organoids; dose 2.00 uM): 0.152; Dose.FC.CTG (log2 fold change) (ENR+CD organoids; dose 10.00 uM): −0.113
CCCCN1CCCCC1C(=O)Nc1c(C)cccc1C (centres unmarked) [Bupivacaine HCl] | 0.016 | – | – | – | – | – | – | – | 0.002 | −0.100 | −0.137 | −0.195 | 0.082 | −0.169 | −0.210 | −0.295 | −0.003 | −0.217 | −0.300 | −0.364 | Z.LYZ.NS ([1]; dose 0.40 uM): −0.871; Z.LYZ.NS ([1]; dose 2.00 uM): −1.196; Z.LYZ.NS ([1]; dose 10.00 uM): −1.700
CCN1CCC[C@H]1CNC(=O)c1cc(S(N)(=O)=O)ccc1OC [Levosulpiride] | 0.114 | 0.205 | 0.441 | −0.240 | – | – | – | – | – | – | – | – | – | – | – | – | – | – | – | – | Dose.FC.LYZ.NS (log2 fold change) ([1]; dose 0.08 uM): 0.013; Dose.FC.LYZ.NS (log2 fold change) ([1]; dose 0.40 uM): 0.024; Dose.FC.LYZ.NS (log2 fold change) ([1]; dose 2.00 uM): 0.051; Dose.FC.LYZ.NS (log2 fold change) ([1]; dose 10.00 uM): −0.028; Dose.FC.LYZ.S (log2 fold change) ([2]; dose 0.08 uM): −0.017; Dose.FC.LYZ.S (log2 fold change) ([2]; dose 0.40 uM): 0.128; Dose.FC.LYZ.S (log2 fold change) ([2]; dose 2.00 uM): 0.124; Dose.FC.LYZ.S (log2 fold change) ([2]; dose 10.00 uM): −0.026; Dose.FC.CTG (log2 fold change) (ENR+CD organoids; dose 0.08 uM): −0.043; Dose.FC.CTG (log2 fold change) (ENR+CD organoids; dose 0.40 uM): −0.006; Dose.FC.CTG (log2 fold change) (ENR+CD organoids; dose 2.00 uM): 0.031; Dose.FC.CTG (log2 fold change) (ENR+CD organoids; dose 10.00 uM): 0.090
Fc1cc(F)c2c(c1)[C@H]1C=CC[C@H]1C(c1cccnc1)N2 (mixture of isomers) [Golgicide A] | 2.325 | 0.576 | 1.492 | −1.402 | 0.398 | 0.541 | 0.810 | −0.526 | – | – | – | – | – | – | – | – | – | – | – | – | Dose.FC.LYZ.NS (log2 fold change) ([1]; dose 0.08 uM): 0.267; Dose.FC.LYZ.NS (log2 fold change) ([1]; dose 0.40 uM): 0.066; Dose.FC.LYZ.NS (log2 fold change) ([1]; dose 2.00 uM): 0.171; Dose.FC.LYZ.NS (log2 fold change) ([1]; dose 10.00 uM): −0.161; Dose.FC.LYZ.S (log2 fold change) ([2]; dose 0.08 uM): 0.146; Dose.FC.LYZ.S (log2 fold change) ([2]; dose 0.40 uM): 0.202; Dose.FC.LYZ.S (log2 fold change) ([2]; dose 2.00 uM): 0.076; Dose.FC.LYZ.S (log2 fold change) ([2]; dose 10.00 uM): −0.256; Dose.FC.CTG (log2 fold change) (ENR+CD organoids; dose 0.08 uM): 0.167; Dose.FC.CTG (log2 fold change) (ENR+CD organoids; dose 0.40 uM): 0.227; Dose.FC.CTG (log2 fold change) (ENR+CD organoids; dose 2.00 uM): 0.339; Dose.FC.CTG (log2 fold change) (ENR+CD organoids; dose 10.00 uM): −0.220
COc1cccc2c1C(=O)c1c(O)c3c(c(O)c1C2=O)C[C@@](O)(C(C)=O)C[C@@H]3O[C@H]1C[C@H](N)[C@H](O)[C@H](C)O1 [Daunorubicin HCl] | – | – | – | – | – | – | – | – | −0.136 | −0.241 | −0.262 | −0.260 | −0.096 | −0.329 | −0.343 | −0.374 | −0.467 | −0.601 | −0.817 | −1.100 | Z.LYZ.NS ([1]; dose 0.08 uM): −1.188; Z.LYZ.NS ([1]; dose 0.40 uM): −2.099; Z.LYZ.NS ([1]; dose 2.00 uM): −2.280; Z.LYZ.NS ([1]; dose 10.00 uM): −2.262
CC(=O)Nc1cccc2c1c(Sc1ccc(Cl)cc1)c(C)n2CC(=O)O [AZD1981] | 0.081 | 0.008 | 0.011 | 0.205 | 0.955 | 0.681 | 0.236 | 0.570 | 0.009 | 0.001 | 0.001 | 0.024 | 0.023 | 0.191 | 0.014 | 0.070 | 0.400 | 0.285 | 0.099 | 0.238 | –
CC(C)C[C@@H](C(=O)N[C@H](C(=O)OC1CCCC1)c1ccccc1)[C@H](O)C(=O)NO [Tosedostat (CHR2797)] | −0.022 | −0.925 | −0.432 | −1.499 | −0.232 | 0.123 | −0.480 | −1.117 | −0.002 | −0.106 | −0.050 | −0.172 | −0.027 | −0.134 | −0.128 | −0.276 | −0.097 | 0.051 | −0.201 | −0.468 | SSMD.CTG (ENR+CD organoids; Table 5A primary screen, strictly standardized mean difference, four lines per treatment = four doses, dose not given): −0.311
CCCCCCCCc1ccc(CCC(N)(CO)CO)cc1.Cl [Fingolimod (FTY720) HCl] | – | – | – | – | – | – | – | – | −0.054 | 0.071 | 0.021 | −0.225 | −0.046 | 0.077 | −0.060 | −0.362 | −0.080 | 0.103 | −0.468 | −1.304 | Z.LYZ.NS ([1]; dose 0.08 uM): −0.471; Z.LYZ.NS ([1]; dose 0.40 uM): 0.616; Z.LYZ.NS ([1]; dose 2.00 uM): 0.186; Z.LYZ.NS ([1]; dose 10.00 uM): −1.961; Z.CTG (ENR+CD organoids; dose 0.08 uM): −0.191; Z.CTG (ENR+CD organoids; dose 0.40 uM): 0.245; Z.CTG (ENR+CD organoids; dose 2.00 uM): −1.119; Z.CTG (ENR+CD organoids; dose 10.00 uM): −3.116
CCN(CC)C(=O)c1ccc(C2=CC3(CCNCC3)Oc3cccc(O)c32)cc1 [ADL5859 HCl] | 0.458 | 0.163 | 0.571 | −0.488 | – | – | – | – | 0.053 | 0.019 | 0.066 | −0.056 | 0.079 | 0.104 | 0.070 | −0.040 | 0.270 | 0.163 | 0.291 | 0.194 | –

Source: patent US20220323406A1, “METHODS AND COMPOSITIONS FOR DIFFERENTIATING STEM CELLS” (Massachusetts Institute of Technology, priority 2019, published 2022)
